{"source": "paper PMC8654847", "about": "“Design of a methotrexate-controlled chemical dimerization system and its use in bio-electronic devices” (Nature Communications, 2021)", "target": "T1, anti-MTX VHH", "T1 construct": "nanoCLAMP8-VHH fusion for the crystal structure 7RG7", "assay": "microscale thermophoresis (EGFP-VHH titrated with MTX); […] Å crystal structure of the ternary complex with nanoCLAMP8", "assay_type": "binding"}
{"smiles": "CN(Cc1cnc2nc(N)nc(N)c2n1)c1ccc(C(=O)N[C@@H](CCC(=O)O)C(=O)O)cc1", "note": "[MTX, methotrexate]", "values": [{"measurement": "Kd", "value": "4.3 ± 0.25", "unit": "nM"}]}
